Assay results reported in BigSolDB 2.1.

`COc1ccc2cccc(CCNC(C)=O)c2c1` showed a solubility (mole fraction) (in ethanol, 278.15 K) of 0.0109, a solubility (mole fraction) (in ethanol, 283.15 K) of 0.0169 and a solubility (mole fraction) (in ethanol, 288.15 K) of 0.0235. For the same molecule, the solubility (mole fraction) (in ethanol, 293.15 K) was 0.0319, the solubility (mole fraction) (in ethanol, 298.15 K) was 0.0425 and the solubility (mole fraction) (in ethanol, 303.15 K) was 0.0542. It also gave a solubility (mole fraction) (in ethanol, 308.15 K) of 0.0819, a solubility (mole fraction) (in ethanol, 313.15 K) of 0.109 and a solubility (mole fraction) (in ethanol, 318.15 K) of 0.144. It also gave a solubility (mole fraction) (in ethyl acetate, 278.15 K) of 0.00662, a solubility (mole fraction) (in ethyl acetate, 283.15 K) of 0.00934 and a solubility (mole fraction) (in ethyl acetate, 288.15 K) of 0.0131. For the same molecule, the solubility (mole fraction) (in ethyl acetate, 293.15 K) was 0.0175, the solubility (mole fraction) (in ethyl acetate, 298.15 K) was 0.0263 and the solubility (mole fraction) (in ethyl acetate, 303.15 K) was 0.0342. For the same molecule, the solubility (mole fraction) (in ethyl acetate, 308.15 K) was 0.0454, the solubility (mole fraction) (in ethyl acetate, 313.15 K) was 0.0598 and the solubility (mole fraction) (in ethyl acetate, 318.15 K) was 0.0754. For the same molecule, the solubility (mole fraction) (in isopropanol, 278.15 K) was 0.00499, the solubility (mole fraction) (in isopropanol, 283.15 K) was 0.0107 and the solubility (mole fraction) (in isopropanol, 288.15 K) was 0.0186. The solubility (mole fraction) (in isopropanol, 293.15 K) was 0.0256, the solubility (mole fraction) (in isopropanol, 298.15 K) was 0.032 and the solubility (mole fraction) (in isopropanol, 303.15 K) was 0.039. For the same molecule, the solubility (mole fraction) (in isopropanol, 308.15 K) was 0.053, the solubility (mole fraction) (in isopropanol, 313.15 K) was 0.0686 and the solubility (mole fraction) (in isopropanol, 318.15 K) was 0.0893. It also gave a solubility (mole fraction) (in methanol, 278.15 K) of 0.0192, a solubility (mole fraction) (in methanol, 283.15 K) of 0.0264 and a solubility (mole fraction) (in methanol, 288.15 K) of 0.0347. For the same molecule, the solubility (mole fraction) (in methanol, 293.15 K) was 0.0442, the solubility (mole fraction) (in methanol, 298.15 K) was 0.0584 and the solubility (mole fraction) (in methanol, 303.15 K) was 0.0752. It also gave a solubility (mole fraction) (in methanol, 308.15 K) of 0.101, a solubility (mole fraction) (in methanol, 313.15 K) of 0.147 and a solubility (mole fraction) (in methanol, 318.15 K) of 0.18. For the same molecule, the solubility (mole fraction) (in n-butanol, 278.15 K) was 0.00986, the solubility (mole fraction) (in n-butanol, 283.15 K) was 0.0147 and the solubility (mole fraction) (in n-butanol, 288.15 K) was 0.0214. It also gave a solubility (mole fraction) (in n-butanol, 293.15 K) of 0.0279, a solubility (mole fraction) (in n-butanol, 298.15 K) of 0.04 and a solubility (mole fraction) (in n-butanol, 303.15 K) of 0.05. The solubility (mole fraction) (in n-butanol, 308.15 K) was 0.06, the solubility (mole fraction) (in n-butanol, 313.15 K) was 0.0802 and the solubility (mole fraction) (in n-butanol, 318.15 K) was 0.107. The solubility (mole fraction) (in n-butyl acetate, 278.15 K) was 0.00323, the solubility (mole fraction) (in n-butyl acetate, 283.15 K) was 0.00474 and the solubility (mole fraction) (in n-butyl acetate, 288.15 K) was 0.00661. For the same molecule, the solubility (mole fraction) (in n-butyl acetate, 293.15 K) was 0.00944, the solubility (mole fraction) (in n-butyl acetate, 298.15 K) was 0.0134 and the solubility (mole fraction) (in n-butyl acetate, 303.15 K) was 0.0207. For the same molecule, the solubility (mole fraction) (in n-butyl acetate, 308.15 K) was 0.0261, the solubility (mole fraction) (in n-butyl acetate, 313.15 K) was 0.038 and the solubility (mole fraction) (in n-butyl acetate, 318.15 K) was 0.0507. It also gave a solubility (mole fraction) (in n-pentyl acetate, 278.15 K) of 0.00181, a solubility (mole fraction) (in n-pentyl acetate, 283.15 K) of 0.00281 and a solubility (mole fraction) (in n-pentyl acetate, 288.15 K) of 0.00432. It also gave a solubility (mole fraction) (in n-pentyl acetate, 293.15 K) of 0.00601, a solubility (mole fraction) (in n-pentyl acetate, 298.15 K) of 0.00884 and a solubility (mole fraction) (in n-pentyl acetate, 303.15 K) of 0.0156. It also gave a solubility (mole fraction) (in n-pentyl acetate, 308.15 K) of 0.021, a solubility (mole fraction) (in n-pentyl acetate, 313.15 K) of 0.0294 and a solubility (mole fraction) (in n-pentyl acetate, 318.15 K) of 0.0397. For the same molecule, the solubility (mole fraction) (in n-propanol, 278.15 K) was 0.00905, the solubility (mole fraction) (in n-propanol, 283.15 K) was 0.016 and the solubility (mole fraction) (in n-propanol, 288.15 K) was 0.0201. It also gave a solubility (mole fraction) (in n-propanol, 293.15 K) of 0.0261, a solubility (mole fraction) (in n-propanol, 298.15 K) of 0.0402 and a solubility (mole fraction) (in n-propanol, 303.15 K) of 0.0484. For the same molecule, the solubility (mole fraction) (in n-propanol, 308.15 K) was 0.0694, the solubility (mole fraction) (in n-propanol, 313.15 K) was 0.0892 and the solubility (mole fraction) (in n-propanol, 318.15 K) was 0.115. The solubility (mole fraction) (in n-propyl acetate, 278.15 K) was 0.00406, the solubility (mole fraction) (in n-propyl acetate, 283.15 K) was 0.00625 and the solubility (mole fraction) (in n-propyl acetate, 288.15 K) was 0.00886. The solubility (mole fraction) (in n-propyl acetate, 293.15 K) was 0.0127, the solubility (mole fraction) (in n-propyl acetate, 298.15 K) was 0.018 and the solubility (mole fraction) (in n-propyl acetate, 303.15 K) was 0.0255. The solubility (mole fraction) (in n-propyl acetate, 308.15 K) was 0.0364, the solubility (mole fraction) (in n-propyl acetate, 313.15 K) was 0.0466 and the solubility (mole fraction) (in n-propyl acetate, 318.15 K) was 0.0639. The solubility (mole fraction) (in water, 278.15 K) was 1.8e-05, the solubility (mole fraction) (in water, 283.15 K) was 2.9e-05 and the solubility (mole fraction) (in water, 288.15 K) was 4.59e-05. It also gave a solubility (mole fraction) (in water, 293.15 K) of 6.85e-05, a solubility (mole fraction) (in water, 298.15 K) of 0.000119 and a solubility (mole fraction) (in water, 303.15 K) of 0.000161. It also gave a solubility (mole fraction) (in water, 308.15 K) of 0.000248, a solubility (mole fraction) (in water, 313.15 K) of 0.00038 and a solubility (mole fraction) (in water, 318.15 K) of 0.000551.
